From patent US9340803B2, “3-hydroxypropionic acid and other organic compounds” (Cargill, Incorporated, priority 2000, dated 2016) come the findings set out here.

The subject of assay [1] is CoA transferase (propionyl-CoA transferase or pct) from Megasphaera elsdenii. The assay is described as follows: CoA transferase activity assay (DTNB/citrate synthase coupled, OD 412 nm) with cell free extract. The conditions noted are these: 25 μM CoA-ester substrate, 200 mM sodium acetate, pH 7.0; cell free extract of E. coli expressing the CoA transferase. Format: biochemical. As to the method:
The plasmid was transformed into Tuner (DE3) pLacI chemically competent cells (Novagen, Madison, Wis.), and expression from the construct tested. Briefly, a culture was grown overnight to saturation and diluted 1:20 the following morning in fresh LB medium with the appropriate antibiotics. The culture was grown at 37° C. with aeration to an OD600 of about 0.6. The culture was induced with IPTG at a final concentration of 100 μM. The culture was incubated for an additional two hours at 37° C. with aeration. Aliquots were taken pre-induction and 2 hours post-induction for SDS-PAGE analysis. A band of the expected molecular weight (55,653 Daltons predicted from the sequence) was observed after IPTG treatment. This band was not observed in cells containing a plasmid lacking the nucleic acid encoding the transferase.
Cell free extracts were prepared to assess enzymatic activity. Briefly, the cells were harvested by centrifugation and disrupted by sonication. The sonicated cell suspension was centrifuged to remove cell debris, and the supernatant was used in the assays.
Transferase activity was measured in the following assay. The assay mixture used contained 100 mM potassium phosphate buffer (pH 7.0), 200 mM sodium acetate, 1 mM dithiobisnitrobenzoate (DTNB), 500 μM oxaloacetate, 25 μM CoA-ester substrate, and 3 μg/mL citrate synthase. If present, the CoA transferase transfers the CoA from the CoA ester to acetate to form acetyl-CoA. The added citrate synthase condenses oxaloacetate and acetyl-CoA to form citrate and free CoASH. The free CoASH complexes with DTNB, and the formation of this complex can be measured by a change in the optical density at 412 nm. The activity of the CoA transferase was measured using the following substrates: lactyl-CoA, propionyl-CoA, acrylyl-CoA, and 3-hydroxypropionyl-CoA. The units/mg of protein was calculated using the following formula: (ΔE/min*Vf*dilution factor)/(VS*14.2)=units/mL where ΔE/min is the change in absorbance per minute at 412 nm, Vf is the final volume of the reaction, and VS is the volume of sample added. The total protein concentration of the cell free extract was about 1 mg/mL so the units/mL equals units/mg.

The test system of assay [2] is 3-hydroxypropionyl-CoA dehydratase (OS19). The assay is described as follows: 3-hydroxypropionyl-CoA dehydratase specificity control reactions, MALDI-TOF MS. Format: biochemical, Chloroflexus aurantiacus. The conditions noted are these: 1 mM CoA ester, 80% D2O. As to the method: Cell free extracts were prepared by growing cells as described above. The cells were harvested by centrifugation and disrupted by sonication. The sonicated cell suspension was centrifuged to remove cell debris, and the supernatant was used in the assays. The ability of the 3-hydroxypropionyl-CoA dehydratase to perform the following three reactions was measured using MALDI-TOF MS:
The assay mixture contained 50 mM Tris-HCl (pH 7.5), 1 mM CoA ester, and about 1 μg cell free extract. Reactions were allowed to proceed at room temperature and were stopped by adding 1 volume 10% trifluroacetic acid (TFA). The reaction mixtures were purified prior to MALDI-TOF MS analysis using Sep Pak Vac C18 50 mg columns (Waters, Inc.). The columns were conditioned with 1 mL methanol and then equilibrated with two washes of 1 mL 0.1% TFA. The sample was applied to the column, and the flow through was discarded. The column was washed twice with 1 mL 0.1% TFA. The sample was eluted in 200 μL 40% acetonitrile, 0.1% TFA. The acetonitrile was removed by centrifugation in vacuo. Samples were prepared for MALDI-TOF MS analysis by mixing 1:1 with 110 mM sinapinic acid in 0.1% TFA, 67% acetonitrile. The samples were allowed to air dry.
A series of control reactions were performed to confirm the specificity of the 3-hydroxypropionyl-CoA dehydratase. […]

A short description of assay [3]: OS17 polypeptide activity, disappearance of NAD(P)H at 340 nm. The conditions noted are these: 3-HP 1 mM as substrate; protein extract of BL21-DE3/pET11a-OS17. It is filed as biochemical, Chloroflexus aurantiacus. As to the method: To assay OS17 polypeptide function, a 100 mL culture of BL21-DE3/pET11a-OS17 cells was started using 1 mL of overnight grown culture as an inoculum. The culture was grown to an OD of 0.5-0.6 and was induced with 100 μM IPTG. After two and a half hours of induction, the cells were harvested by spinning at 8000 rpm in the floor centrifuge. The cells were washed with 10 mM Tris-HCl (pH 7.8) and passed twice through a French Press at a gauge pressure of 1000 psi. The cell debris was removed by centrifugation at 15,000 rpm. The activity of the OS17 polypeptide was measured spectrophotometrically, and the products formed during this enzymatic transformation were detected by LC/MS. The assay mix was as follows (J. Bacteriol., 181:1088-1098 (1999)):
The initial rate of reaction was measured by monitoring the disappearance of NAD(P)H at 340 nm. The activity of the OS17 polypeptide was measured using 3-HP as the substrate. The units/mL of total protein was calculated using the formula set forth in Example 1. The activity of the expressed OS17 polypeptide was calculated to be 0.061 U/mL of total protein. The reaction products were purified using a Sep Pak Vac column (Waters). The column was conditioned with 1 mL methanol and washed two times with 0.5 mL 0.1% TFA. […] The reaction products were analyzed by LC/MS.

Take `CC(C)(COP(=O)(O)OP(=O)(O)OC[C@H]1O[C@@H](n2cnc3c(N)ncnc32)[C@H](O)[C@@H]1OP(=O)(O)O)[C@@H](O)C(=O)NCCC(=O)NCCSC(=O)CCO` [3-Hydroxypropionyl-CoA]: the “CoA transferase activity, Units/mg” value in assay [1] stood at 110 Units/mg. Moreover, in assay [2], the “activity of 3-hydroxypropionyl-CoA dehydratase enzyme on CoA ester” value is reported as “active”.

Turning to `C=CC(=O)SCCNC(=O)CCNC(=O)[C@H](O)C(C)(C)COP(=O)(O)OP(=O)(O)OC[C@H]1O[C@@H](n2cnc3c(N)ncnc32)[C@H](O)[C@@H]1OP(=O)(O)O` [Acrylyl-CoA], the “CoA transferase activity, Units/mg” value in assay [1] amounted to 118 Units/mg.

In the case of `CC(O)C(=O)SCCNC(=O)CCNC(=O)[C@H](O)C(C)(C)COP(=O)(O)OP(=O)(O)OC[C@H]1O[C@@H](n2cnc3c(N)ncnc32)[C@H](O)[C@@H]1OP(=O)(O)O` (stereo partly shown) [Lactyl-CoA], the “CoA transferase activity, Units/mg” value in assay [1] came to 211 Units/mg. Further, the “activity of 3-hydroxypropionyl-CoA dehydratase enzyme on CoA ester” value in assay [2] is “not active”.

Take `CCC(=O)SCCNC(=O)CCNC(=O)[C@H](O)C(C)(C)COP(=O)(O)OP(=O)(O)OC[C@H]1O[C@@H](n2cnc3c(N)ncnc32)[C@H](O)[C@@H]1OP(=O)(O)O` [Propionyl-CoA]: the “CoA transferase activity, Units/mg” value in assay [1] is recorded as 144 Units/mg.

For the compound “OS17 polypeptide: C. aurantiacus polypeptide having CoA synthase, dehydratase, and dehydrogenase activity (propionyl-CoA synthetase)”, the “activity of the expressed OS17 polypeptide” value in assay [3] is on record as 0.061 U/mL of total protein.
